Laboratory results from PubChem BioAssay (NCI).
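Tested at 5 concentrations; 48 h exposure; 96-well plates; endpoints linearly interpolated, else capped at highest concentration. TGI: concentration producing complete growth inhibition.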 Where a SMILES comes first, the peptide text is derived from it. The star is where a group is joined. Pentanoyl = CCCCC(=O)*; Boc = CC(C)(C)OC(=O)*

What was measured:
Experiment in all cases: growth of human tumour cells (NCI), 48 h
MDA-N = test system: MDA-N
OVCAR-3 ovarian = test system: OVCAR-3 ovarian
HCT-15 colon = test system: HCT-15 colon
TK-10 renal = test system: TK-10 renal
MOLT-4 leukemia = test system: MOLT-4 leukemia
HOP-62 NSCLC = test system: HOP-62 NSCLC
BT-549 breast = test system: BT-549 breast
UACC-62 melanoma = test system: UACC-62 melanoma
SF-539 CNS = test system: SF-539 CNS
HCT-116 colon = test system: HCT-116 colon
A549 NSCLC = test system: A549 NSCLC
RXF 393 renal = test system: RXF 393 renal
786-0 renal = test system: 786-0 renal
NCI-H522 lung = test system: NCI-H522 lung
UACC-257 melanoma = test system: UACC-257 melanoma
HCC-2998 colon = test system: HCC-2998 colon
DU-145 prostate = test system: DU-145 prostate
SF-295 CNS = test system: SF-295 CNS
SK-MEL-28 melanoma = test system: SK-MEL-28 melanoma

Structure (SMILES)	TGI (MDA-N)	TGI (OVCAR-3 ovarian)	TGI (HCT-15 colon)	TGI (TK-10 renal)	TGI (MOLT-4 leukemia)	TGI (HOP-62 NSCLC)	TGI (BT-549 breast)	TGI (UACC-62 melanoma)	TGI (SF-539 CNS)	TGI (HCT-116 colon)	TGI (A549 NSCLC)	TGI (RXF 393 renal)	TGI (786-0 renal)	TGI (NCI-H522 lung)	TGI (UACC-257 melanoma)	TGI (HCC-2998 colon)	TGI (DU-145 prostate)	TGI (SF-295 CNS)	TGI (SK-MEL-28 melanoma)
O=C1c2ccccc2C(=O)c2c1ccc1nc3c(nc21)-c1c2ccccc2cc2cccc-3c12	> 100 µM	> 100 µM	> 100 µM	> 100 µM	> 100 µM	> 91.6 µM	> 100 µM	> 86.2 µM	> 100 µM	> 100 µM	> 100 µM	> 100 µM	> 100 µM	> 100 µM	> 100 µM	> 100 µM	> 81.7 µM	> 100 µM	> 100 µM
CCOC(=O)C1=C(C)OC(=O)[C@@]2(OC)C=C(Cl)[C@@]12C	> 100 µM	> 100 µM	> 100 µM	> 100 µM	> 100 µM	> 100 µM	> 100 µM	> 100 µM	> 100 µM	> 100 µM	> 100 µM	> 100 µM	> 100 µM	> 100 µM	> 100 µM	> 100 µM	> 100 µM	> 100 µM	> 100 µM
O=[N+]([O-])c1ccc2c(c1)Nc1c3ccccc3nc3cccc-2c13	15.2 µM	3.8 µM	81.2 µM	17.3 µM	34.6 µM	7.7 µM	29.8 µM	18.1 µM	44.3 µM	28.8 µM	15.9 µM	32.9 µM	7.36 µM	33.2 µM	47.9 µM	0.341 µM	9.43 µM	6.98 µM	24.8 µM
O=C1C(C(c2ccccc2)N2CCOCC2)=C(O)C(c2ccccc2)N1c1ccccc1 (stereo unspecified)	> 10 µM	> 10 µM	> 10 µM	> 10 µM	> 10 µM	> 10 µM	> 10 µM	> 10 µM	> 10 µM	> 10 µM	> 10 µM	> 10 µM	> 10 µM	> 10 µM	> 10 µM	> 10 µM	> 10 µM	> 10 µM	> 10 µM
CC(=O)Nc1sc([N+](=O)[O-])cc1S(=O)(=O)c1ccc(Cl)cc1	> 100 µM	16.1 µM	> 95 µM	> 100 µM	> 50.2 µM	3.99 µM	> 24.8 µM	22.4 µM	10.2 µM	19.8 µM	> 54.6 µM	13.5 µM	> 100 µM	11 µM	16.8 µM	8.64 µM	> 40.8 µM	8.07 µM	> 100 µM
O=C1C(Cl)=C(N2C(=O)CCCC2=O)C(=O)c2ccccc21	31 µM	> 100 µM	25.6 µM	31.3 µM	55.6 µM	> 100 µM	36.2 µM	37.4 µM	38 µM	32 µM	54.7 µM	31.9 µM	33 µM	4.53 µM	38.7 µM	31.4 µM	30.2 µM	> 100 µM	33.4 µM
CCOC(=O)[C@H](O)[C@@H](O)C(=O)NCc1ccc(C(=O)c2ccccc2)cc1	> 100 µM	> 100 µM	> 100 µM	> 100 µM	> 100 µM	> 100 µM	> 100 µM	> 100 µM	> 100 µM	> 100 µM	> 100 µM	> 100 µM	> 100 µM	> 100 µM	> 100 µM	> 100 µM	> 100 µM	> 100 µM	> 100 µM
CCOC(=O)CC1(O)CCCCC1(Sc1ccc(C)cc1)Sc1ccc(C)cc1 (stereo unspecified)	> 100 µM	> 100 µM	> 100 µM	> 100 µM	> 100 µM	> 100 µM	> 100 µM	> 100 µM	> 100 µM	> 100 µM	> 100 µM	> 100 µM	> 100 µM	51 µM	> 100 µM	> 100 µM	> 100 µM	> 100 µM	> 100 µM
CCOP(=O)(OCC)C(N)Cc1ccc(OC)c(OC)c1 (stereo unspecified)	> 100 µM	> 100 µM	> 100 µM	> 100 µM	> 100 µM	–	> 100 µM	> 100 µM	> 100 µM	> 100 µM	> 100 µM	> 100 µM	> 100 µM	> 100 µM	> 100 µM	> 100 µM	> 100 µM	> 100 µM	> 100 µM
CCC1(CCSC(=N)N)C(=O)NC(=O)NC1=O	> 100 µM	> 100 µM	> 100 µM	> 100 µM	> 100 µM	> 100 µM	> 100 µM	> 100 µM	> 100 µM	> 100 µM	> 100 µM	> 100 µM	> 100 µM	> 100 µM	> 100 µM	> 100 µM	> 100 µM	> 100 µM	> 100 µM
CCCCC(=O)Oc1ccc(CC(NC(=O)OC(C)(C)C)C(=O)NC(C)C(=O)NC(Cc2ccccc2)C(=O)NCC(N)=O)cc1 (stereo unspecified) (Boc-Y(Pentanoyl)AFG-NH2; configuration not given here)	65.8 µM	39.2 µM	> 100 µM	> 100 µM	54.2 µM	50 µM	55.7 µM	45.5 µM	> 100 µM	47.1 µM	> 100 µM	> 100 µM	> 100 µM	39.5 µM	71.4 µM	38.8 µM	> 100 µM	> 100 µM	64.1 µM
Cc1nc2ccccc2c(=O)n1NC(=O)c1ccc([N+](=O)[O-])cc1	> 100 µM	> 100 µM	–	> 100 µM	> 100 µM	> 100 µM	> 100 µM	> 100 µM	> 100 µM	> 100 µM	> 100 µM	> 100 µM	> 100 µM	> 100 µM	> 100 µM	> 100 µM	> 100 µM	> 100 µM	> 100 µM
O=C(NNc1ccnc2cc(Cl)ccc12)/C(=C\c1ccccc1Cl)NC(=O)c1ccccc1	> 100 µM	38.2 µM	> 100 µM	> 100 µM	–	48.6 µM	87.8 µM	70.9 µM	72.7 µM	> 100 µM	> 100 µM	> 100 µM	> 100 µM	39.9 µM	> 100 µM	> 100 µM	> 100 µM	96.1 µM	> 100 µM
O=C(O)NCc1ccccc1 (tested in a mixture with another compound)	> 94.4 µM	> 96.1 µM	> 100 µM	> 87.5 µM	45.9 µM	> 100 µM	> 92.3 µM	37.2 µM	> 100 µM	> 100 µM	> 100 µM	> 75.5 µM	> 100 µM	96.7 µM	> 95.9 µM	51.6 µM	> 100 µM	> 100 µM	> 100 µM
C=CCn1c(C23CC4CC(CC(C4)C2)C3)n[nH]c1=S	> 100 µM	> 100 µM	> 100 µM	> 100 µM	> 100 µM	> 100 µM	> 100 µM	> 100 µM	> 100 µM	> 100 µM	–	> 100 µM	> 100 µM	> 100 µM	> 100 µM	> 100 µM	> 100 µM	> 100 µM	> 100 µM
O=c1oc2nc(-c3ccccc3)cc(C(F)(F)F)c2n1Cc1ccccc1	2.68 µM	> 100 µM	> 100 µM	> 100 µM	> 100 µM	> 100 µM	> 100 µM	> 100 µM	> 100 µM	> 100 µM	> 100 µM	> 30.3 µM	> 100 µM	> 100 µM	> 100 µM	> 100 µM	> 100 µM	> 100 µM	> 100 µM
CCCCCC(=O)Nc1nc[nH]c1C(N)=O	> 100 µM	> 100 µM	> 100 µM	> 100 µM	> 100 µM	> 100 µM	> 100 µM	> 100 µM	> 100 µM	> 100 µM	> 100 µM	> 100 µM	> 100 µM	> 100 µM	> 100 µM	> 100 µM	> 100 µM	> 100 µM	> 100 µM
O=C(O)C1=C(C(=O)O)N(c2ccncc2)C(c2ccco2)=CC1c1ccccc1[N+](=O)[O-] (stereo unspecified)	20.7 µM	23.5 µM	4.25 µM	17.6 µM	14.5 µM	33.7 µM	30 µM	32.1 µM	4.55 µM	3.4 µM	35.9 µM	21.3 µM	4.06 µM	9.59 µM	5.28 µM	3.57 µM	24.9 µM	25.5 µM	> 54.8 µM
COc1cc(=O)n2c3ccccc3n(C)c2c1C#N	> 100 µM	> 100 µM	> 100 µM	> 100 µM	> 100 µM	> 100 µM	> 100 µM	> 100 µM	> 100 µM	> 100 µM	> 100 µM	> 100 µM	> 100 µM	> 100 µM	> 100 µM	> 100 µM	> 100 µM	> 100 µM	–
